Assay results reported in article PMC8741514, “Post-translational modifications within tau paired helical filament nucleating motifs perturb microtubule interactions and oligomer formation” (The Journal of Biological Chemistry, 2021).
Entries after “also recorded” stand apart in the source; their conditions may differ. Blank lines part the entries; values can stand above or below the sequence they belong to.

Tested on: T2R complex
Test: STD NMR titration, tau peptide binding to T2R
Design: species or system porcine (tubulin isolated from porcine brain)
Settings: T2R 10 μM; for STD signal / binding to T2R: 1H STD NMR, peptide 2.8 mM, 600 MHz, saturation time 2 s, GPEM buffer pH 6.9; for STD signal / binding to T2R / apparent Kd / affinity for T2R (in words): 10 °C; for apparent Kd / affinity for T2R (in words): STD amplification factor fit, large errors, qualitative
Description: Tubulin protein isolated from porcine brain (97 or >99% pure) was purchased from Cytoskeleton, Inc, as a lyophilized powder. Stathmin-like RB3 domain (RB3SLD) binds to heterodimeric tubulin with a 1:2 stoichiometry, forming a longitudinal dimer of tubulin dimers. For ^1H,^15N HSQC NMR experiments, lyophilized tubulin was dissolved into a solution of 48 μM ^15N-labeled K18 (unmodified, modified, or mutant) containing 53 μM RB3 for a final T2R concentration of 50 μM in a buffer containing 25 mM Tris-d11, 25 mM NaCl, 2.5 mM EDTA, 1.5 mM DTT, and 10% heavy water (deuterium oxide [D2O]) at pH 6.7. For ^1H STD NMR experiments, 10 μM T2R was used for samples containing 0.044 to 2.8 mM peptide. Peptide was directly dissolved into buffer or water and added to 10 μM T2R in a buffer containing 25 mM Tris-d11, 25 mM NaCl, 2.5 mM EDTA, 1.5 mM DTT, and 10% D2O at pH 6.7.
STD spectra were recorded at 10 °C on a 600 MHz spectrometer equipped with a cryoprobe by using a series of 40 equally spaced 50 ms Gaussian-shaped pulses, 4096 scans, a saturation time of 2 s, and on/off-resonance frequencies set to −0.5 and 60 ppm, respectively. Samples for ^1H STD NMR were dissolved into GPEM buffer (80 mM PIPES, 2 mM MgCl2, and 0.5 mM EGTA, at pH 6.9). Spectra were processed and analyzed using Topspin 3.1 (Bruker). We quantify the binding of tau peptides to T2R with a series of STD titration experiments ([95]). STD NMR spectra of the ligand with and without T2R were recorded. The concentration of ligand (tau peptide) ranged from 0.04 to 2.8 mM; T2R concentration was maintained at 10 μM. From STD NMR spectra, STD signals were integrated and summed for both STDdiff and STDref over three regions, 8.565 to 7.771, 7.584 to 7.384, and 7.073 to 6.681 ppm. From STDdiff and STDref, STD AFs (STDAF) were calculated according to Equation 1, where [L] is the concentration of peptide (0.04–2.8 mM) and [R] is the concentration of T2R (10 μM). […] STD-AF values (at a fixed saturation time) of a peptide were fitted according to Equation 2, where αSTD represents the maximum STD AF ([72]). For peptide concentration of […] and T2R concentration of 10 μM, we generated STD build-up curves by recording the STD difference signal at increasing saturation times of 0.1 to 4 s. […] (2) STDAF([L])=αSTD∗[L]/Kd+[L] (3) STDAF(t)=STDmax(1−e^(−Ksat∗t)) STD0=STDmax∗Ksat

apparent Kd / affinity for T2R (in words) (peptide 0.044 to 2.8 mM, listed as Y310 phosphorylated peptide): severely reduced peptide binding to T2R | apparent Kd / affinity for T2R (in words) (peptide 0.044 to 2.8 mM, listed as Y310 phosphorylated peptides): precluded a reliable fit
Sequence: NIKHVPGGGSVQIV {phospho-Y} KPVDLSKVTSK [Phos-Y310 296 to 321, Y310 phosphorylated form of the 296 to 321 peptide]
STD signal / binding to T2R (listed as phosphorylation at residue Y310): weaker STD signal; also recorded: Decreases in binding | apparent Kd / affinity for T2R (in words) (peptide 0.044 to 2.8 mM, listed as phosphorylation at Y310): linear binding curve over the accessible range of peptide concentrations, precluding a robust fit to the data, but indicating a more severe reduction in affinity

apparent Kd / affinity for T2R (in words) (peptide 0.044 to 2.8 mM, listed as Succinylation at K311): trend toward lower apparent affinity | apparent Kd increase vs 296 to 321 peptide (STD-AF, peptide 0.044 to 2.8 mM, trend): ca. twofold
Sequence: NIKHVPGGGSVQIVY {succinyl-K} PVDLSKVTSK [Succinyl-K311 296 to 321, K311 succinylated form of the 296 to 321 peptide]
STD signal / binding to T2R (listed as succinylation at residue K311): loss of binding is evident; also recorded: Decreases in binding | apparent Kd / affinity for T2R (in words) (peptide 0.044 to 2.8 mM, listed as Succinylation of K311): trend toward reduced binding, though to a lesser extent

STD signal / binding to T2R (listed as acetylation at K280): further weakened | STD signal / binding to T2R (listed as acetylation at residue K280): Decreases in binding
Sequence: NLKHQPGGGKVQIIN {acetyl-K} KLDLSNVQSK [Acetyl-K280 265 to 290, K280 acetylated form of the 265 to 290 peptide]
apparent Kd / affinity for T2R (in words) (peptide 0.044 to 2.8 mM, listed as K280 acetylation): trend toward reduced binding, though to a lesser extent
